# Results published in US20220087970A1, “PREVENTION OF ANESTHETIC-INDUCED NEUROCOGNITIVE DYSFUNCTION” (The Johns Hopkins University, priority 2019, published 2022).
# How the values were obtained:
# [1] = system: NR2B; test: Western blot of hippocampal synaptic fractions: NR2B; type: in vivo; conditions: one day after PND7 mice exposed to isoflurane (1.5% ISO in O2, 4 h)
# Description: One day after PND7 mice were exposed to isoflurane (1.5% ISO in O2, 4 h), we harvested hippocampal tissues for Western blotting to assess the expression of receptors and MAGUKs. […] (N=9). A *p<0.05 was considered significant. […] Data shown as % actin;
# [2] = system: neuron cultures; test: Neuron cultures, synapses (PSD95/Synaptophysin puncta) at DIV14; type: cell-based; conditions: isoflurane exposure at DIV7, stained at DIV14
# Description: Neuron cultures were transfected with GFP-AAV virus at DIV-4 and were exposed to NO donor (DETA) 150 μM and sGC inhibitor (ODQ) 100 μM for 4 hrs right before exposure to gases at DIV7. Cells were returned back to incubator with half media change every second day. At DIV14, cells were fixed and stained with PSD95 and Synaptophysin. […] Scale bar is 5 μm. FIG. 23B: Synapse were analyzed using puncta analyzer plugin as shown in methods section.
# [3] = set-up: species or system mice; conditions: mouse, in vivo
# Description: PND7 control and experimental mice were placed in a clear plastic cone and body temperature maintained by a heating blanket set to 35° C. Heart rate (HR) and oxyhemoglobin saturation (SpO2) were continuously monitored using pulse-oximetry (PhysioSuite, Kent Scientific). Arterial blood was collected by terminal cardiac puncture of the left ventricle from sentinels and pH (pHa) determined using a blood gas machine (ABL800 FLEX Series Radiometer). […] Naïve control animals were left with the dams. Control ‘CON’ animals were exposed to oxygen only. Anesthesia was initiated with 2.4% isoflurane in oxygen for 2 min and tapered down to 1.5% within 15 min. Exposure to 1.5% isoflurane was continued for 3 hours and 45 min (total 4 hours ISO). At the end of the exposure animals were maintained in oxygen on the heating blanket for 10 min then returned to dams. […] Tao and Johns, 2008. Purification of fusion peptides was performed by Creative BioMart (Shirley, N.Y.) and verified by Coomassie blue staining and Western blot analysis and then stored in 10% glycerol/phosphate-buffered saline at −80° C. until use. The Tat-PSD-95 PDZ2WT and MUT plasmids used to generate proteins containing an amino-terminal, in-frame, 11-amino-acid, minimal transduction domain (residues 47-57 of human immunodeficiency virus Tat protein) termed Tat. […] Fang et al., 2003. The NO donor Molsidomine [(N-[ethoxycarbonyl]-3-[4-morpholinosydnomine] (Sigma, St. Louis, Mo.) was injected at 4 mg/kg into mice ip in 100 μL sterile saline as previously described. Control animals were injected ip with the vehicle (saline).
# [4] = system: PSD-95 or PSD-93 and the NMDA receptor or nNOS; conditions: clinically relevant concentrations; Fang et al., 2003; Tao et al., 2015; cited from earlier work
# [5] = system: GFP+ neurons; conditions: early exposure to isoflurane, PND30; Kang et al., 2017; cited from earlier work
# [6] = system: primary neuron cultures; test: Primary neuron cultures, long thin spines and filopodia at DIV7; type: cell-based; conditions: 4 hrs: isoflurane 1.5%, PDZ2WT peptide 1 μM or sevoflurane 2.1%
# Description: Primary neuron cultures were exposed to control gas (25% O2, 5% CO2, bal N2), isoflurane (1.5% ISO in 25% O2, 5% CO2, bal N2), DETA NONOate NO donor 150 μM and sGC inhibitor ODQ 100 μM for 4 hrs. […] MAP2 dendrite marker, green. Drebrin A/E immature spine/filopodia marker, red. Scale bar is 5 μm. FIG. 20B, Density of long thin spines and filopodia at DIV7 among exposed groups analyzed using Imaris 93.1;
# MAP2, green. Drebrin, red. Scale bar is 5 μm. FIG. 21B, show the density of long thin spines and filopodia among exposed groups;
# Neuron cultures were exposed to control gas (25% O2, 5% CO2, balance N2) or sevoflurane (2.1% ISO in 25% O2, 5% CO2, balanced N2) for 4 hrs. […] Scale bar is 5 μm. FIG. 22B, Density of long thin spines and filopodia among exposed groups; and […]
structure (smiles),measurement,setting,value
"FC(F)OC(Cl)C(F)(F)F (racemic) [ISO, (RS)-2-chloro-2-(difluoromethoxy)-1,1,1-trifluoroethane]",amount of NR2B in synaptic fractions,[1],significant increase
same,synapses at DIV14 after exposure,[2],loss of synapse
same,arterial blood pH (pHa),[3],7.26±0.05
same,heart rate (HR),[3],611±84
same,oxyhemoglobin saturation (SpO2),[3],93±6
same,PDZ domain-mediated protein interactions,[4],can disrupt PDZ domain-mediated protein-protein interactions in vitro and in vivo
same,total dendritic length and Sholl analysis of dendritic complexity,[5],marked overgrowth of dendritic arbors
same,long thin spines and filopodia at DIV7 after exposure,[6],loss of long thin and filopodia spines
